The results in this text go back to patent publication US5830851A (Affymax Technologies N.V., priority 1995, dated 1998).

In general, EC50 refers to the concentration at which the effect is half-maximal.

Residues, ends and D or L forms follow the SMILES beside them. Where only a bound is given, the exact number is not on record here.

For experiment [1], the target named is T1, murine receptor (FDC-P1/ER cells) (Mus musculus, UniProt P14753).
T1 construct: expressed in transfected cells; host or cells: FDC-P1 (murine bone marrow derived cell line)
T1 sequence (P14753 25-507): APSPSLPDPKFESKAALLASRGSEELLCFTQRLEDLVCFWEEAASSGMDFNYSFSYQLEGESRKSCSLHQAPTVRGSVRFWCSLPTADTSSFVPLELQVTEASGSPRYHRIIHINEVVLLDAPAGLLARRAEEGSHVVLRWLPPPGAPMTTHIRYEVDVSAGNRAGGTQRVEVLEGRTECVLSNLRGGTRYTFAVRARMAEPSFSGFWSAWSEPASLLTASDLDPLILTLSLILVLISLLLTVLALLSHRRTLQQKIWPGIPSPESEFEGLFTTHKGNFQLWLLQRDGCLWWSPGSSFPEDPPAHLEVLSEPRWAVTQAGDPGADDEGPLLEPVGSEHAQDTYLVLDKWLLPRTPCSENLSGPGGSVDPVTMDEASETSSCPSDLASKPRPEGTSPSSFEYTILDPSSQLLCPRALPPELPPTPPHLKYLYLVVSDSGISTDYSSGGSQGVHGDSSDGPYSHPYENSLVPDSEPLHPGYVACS
In words: Peptide dependent growth of the EPO-responsive cell line FDC-P1/ER (thymidine incorporation). The experiment is classed as cell-based. For orientation: Incorporation of labelled thymidine or its analogues reports DNA synthesis.
Procedure: Sample Preparation: Peptides were resuspended in DMSO as a 1×10^-2 M stock solution and serially diluted in 10-fold increments to generate the following 100× solutions: [formula]
Two μl of each stock dilution was added to a cell well as described below in a total volume of 200 μl to generate final concentrations as follows: [formula]
Cells are counted and resuspended at a concentration of 800,000 cells/ml. Approximately forty thousand cells (50μ) are added to each well of a 96 well microtiter plate. Peptide is added to each well in triplicate. A standard dose response determination is run with each series of peptides. After a forty-two hr incubation (≈2 doubling), each well is pulsed with 1 μCi/well Thymidine. Cells are incubated an additional six hr at which time cells are harvested and counted to assess thymidine incorporation as an indicator of cell proliferation.

In experiment [2] the test system is human peripheral blood mononuclear cells. In words: Colony assay, human peripheral blood. The format is cell-based. As for the experimental part: (§1) A ten milliliter sample of peripheral blood was obtained from a healthy individual in a standard sterile heparin vacutainer tube. Murine bone marrow was obtained from the femurs of approximately 10 mice per experiment. All reagents were obtained from Stem Cell Technologies Inc. (Vancouver, Canada).
(§2) a. Experimental Protocol: Briefly, a nucleated cell count was performed to establish the number and concentration of nucleated cells in the original sample. In the case of peripheral blood, the sample is subjected to centrifugation through a Ficoll-Hypaque (1.077 g per ml) gradient at 400 g for 30 minutes at room temperature. Mononuclear cells at the interface of the Ficoll-Hypaque solution are carefully removed and diluted to a total volume of about 10 ml. The cells obtained from murine bone marrow or human peripheral blood were collected by centrifugation and the supernatant was decanted. The pelleted cells were resuspended in fresh medium and subjected to collection as described above. The washed cells were diluted in Iscove's medium/2% fetal bovine serum to the following concentration for plating:
Cells were added to methyl cellulose per directions of the manufacturer. […] Equivalent cell numbers were plated in "Complete" methylcellulose medium to assess maximal colony formation. A control plate was run with each assay minus EPO and peptide to determine background colony formation. […]

Experiment [3] has as its system FDCP-1/muER cells. The experiment is described as follows: Peptide-induced initiation of cell cycle measured by DNA content. The format is cell-based, murine. The following applies: 10 U/ml EPO, ten hours postinduction. The procedure:
1. Experimental Protocol: FDCP-1/muER cells were grown to stationery phase≈3.0×10^6 cells/ml. […] Three million cells were collected at the following time points: 0, 6, 8, 10, and 12 hr. (see, FIG. 15). Cells were washed twice in cold PBS and fixed by resuspending the cell pellet in 100 μl of cold PBS followed by 900 μl of cold 70% ethanol. Cells were stained with 50 μg/ml of propidium iodine and fluorescence was measured on FACS Scan Flow cytometer. The percentage of cells in each phase was measured using the SOBR model of CellFIT software, by Becton Dickinson.

Experiment [4] has as its system murine bone marrow cells. The experiment is described as follows: Colony assay, murine bone marrow. The format is cell-based. Particulars: EPO. As for the experimental part:
as §1, §2
Cells were added to methyl cellulose per directions of the manufacturer. […] Equivalent cell numbers were plated in "Complete" methylcellulose medium to assess maximal colony formation. A control plate was run with each assay minus EPO and peptide to determine background colony formation. Colonies were scored after both 10 days and 18 days of incubation.

Where [5] appears, read: set up 2/10/94, scored 2/23/94, EPO 3U/ml.
Setting [6] is: set up 2/10/94, scored 2/23/94, EPO (METHOCULT).
Where [7] appears, read: set up 2/10/94, scored 3/4/94, EPO 3U/ml.
Where [8] appears, read: set up 2/10/94, scored 3/4/94, EPO (METHOCULT).
The mark [9] stands for this setting: Table 14, 1/28/94 experiment, scored 2/10/94.
[10] abbreviates: Table 14, 1/28/94 experiment, scored 2/21/94.
[11] abbreviates: Table 15, 2/21/94 experiment, scored 3/1/94.
[12] abbreviates: Table 15, 2/21/94 experiment, scored 3/14/94.

In experiment [1], `CC(C)C[C@@H]1NC(=O)[C@@H]2CCCN2C(=O)CNC(=O)[C@H](Cc2ccccc2)NC(=O)[C@H](Cc2c[nH]cn2)NC(=O)[C@@H](NC(=O)[C@H](CO)NC(=O)[C@@H](N)Cc2ccc(O)cc2)CSSC[C@@H](C(N)=O)NC(=O)[C@H](C(C)C)NC(=O)[C@H](Cc2c[nH]c3ccccc23)NC(=O)[C@H]([C@@H](C)O)NC1=O` [RWJ 61477] (HELM PEPTIDE1{Y.S.C.H.F.G.P.L.T.W.V.C.[am]}$PEPTIDE1,PEPTIDE1,3:R3-12:R3$$$V2.0) came in with an EC50 of 1000 nM.
Regarding “EPO: Erythropoietin, a glycoprotein hormone with 165 amino acids; recombinant standard”, in experiment [2] (setting [5]), the CFU-E was 7 and the MBFU-E amounted to 7. Further, in experiment [2] (setting [6]), the CFU-E was found to be 11 and the MBFU-E is given as 25. In experiment [2] (setting [7]), this compound showed a CFU-E of 4, a CFU-GM of 3, an MBFU-E of 7 and a PBFU-E of 7. For the same compound, in experiment [2] (setting [8]), the CFU-E was 1, the CFU-GM is reported as 9, the MBFU-E worked out at 11 and the PBFU-E was determined as 13. Besides, in experiment [3], the “cells in S phase” value is recorded as “approximately 45%”. For the same compound, in experiment [4] (setting [9]), the “BFU-E colony-forming cell numbers” value is 5, the “CFU-E colony-forming cell numbers” value is recorded as 23 and the “CFU-GM colony-forming cell numbers” value is on record as 3. In experiment [4] (setting [10]), the “BFU-E colony-forming cell numbers” value was 30, the “CFU-E colony-forming cell numbers” value amounted to 0 and the “CFU-GM colony-forming cell numbers” value was found to be 3. In addition, in experiment [4] (setting [11]), the “BFU-E colony-forming cell numbers” value is 3, the “CFU-E colony-forming cell numbers” value was found to be 3 and the “CFU-GM colony-forming cell numbers” value is on record as over 10. In experiment [4] (setting [12]), the “CFU-E colony-forming cell numbers” value came out at 0, the “CFU-GM colony-forming cell numbers” value was 26, the “MBFU-E colony-forming cell numbers” value was found to be 0 and the “PBFU-E colony-forming cell numbers” value turned out to be 10.
